From patent US8309515B2, “Poly(ethylene oxide)-block-poly(ester) block copolymers” (priority 2006, dated 2012)

Experiments:
[1] = tested on: B16-BL6 mouse melanoma cells; assay: In vitro cytotoxicity, MTT assay; assay type: cell-based
Procedure: In vitro cytotoxicity activity of PEO-b-P(CL-DOX) and DOX loaded PEO-b-P(CL-DOX) block copolymer micelles were investigated against B16-BL6 mouse melanoma cells using MTT assay. […] After this time, MTT solution (20 μL; 5 mg/ml in sterile-filtered PBS) was added to each well and the plates were reincubated for a further 3 h. The formazan crystals were dissolved in DMSO, and the concentration was read by a Power Wave×340 microplate reader (Bio-Tek Instruments, Inc. USA) at 550 nm.

[2] = tested on: rat red blood cells; assay: In vitro hemolysis against rat red blood cells; conditions: 0.1% triton-X 100, positive control
Procedure: Blood was freshly obtained from a Sprague-Dawley rat by cardiac puncture, mixed with sterile isotonic PBS and centrifuged at 3,000 rpm for 5 minutes. The supernatant were pipetted out and the red blood cells were diluted with isotonic sterile PBS (pH: 7.4). The proper dilution factor was estimated from the UV-Vis absorbance of hemoglobin at 576 nm in the supernatant after RBCs were lysed by 0.1% triton X 100. A properly diluted sample of RBCs gave an absorbance of 0.4 to 0.5. […] After incubation the samples were kept in ice bath to stop further hemolysis. The samples were centrifuged at 14,000 rpm for 30 sec to precipitate the intact RBC cells. The supernatant was separated and analyzed for hemoglobin by UV-Vis spectrophotometer at 576 nm. The percentage of hemolyzed RBC was calculated using the equation: % of hemolysis=100 (Abs−Abs0)/(Abs100-Abs0), where Abs, Abs0 and Abs100 are the absorbance for the sample, control with no polymer or DOX and control with 0.1% triton X 100, respectively.

Compound | times lower IC50 / higher cytotoxicity than PEO-b-P(CL-DOX) micelles ([1]; 24 h incubation) | times lower IC50 than PEO-b-P(CL-DOX) micelles ([1]; 48 h incubation) | hemolysis [2]
COc1cccc2c1C(=O)c1c(O)c3c(c(O)c1C2=O)C[C@@](O)(C(=O)CO)C[C@@H]3O[C@H]1C[C@H](N)[C@H](O)[C@H](C)O1 [free DOX, doxorubicin] | 50 times | 15 times | 
triton-X 100 |  |  | 100%
